Several values for one entry are separate records, joined by “and”; a condition that tells them apart may be missing. Equal entries are not always repeated.
Assays:
[1] = CSF concentration of endogenous d0OT by LC-MS/MS; type: in vivo, rhesus macaques (Macaca mulatta)
Experimental: (§1) The six monkeys were dosed once a week, for 4 consecutive weeks, with each DOSE–ROUTE condition of d5OT (40 IU IN, 40 IU IV, 80 IU IN, or 80 IU IV). Each DOSE–ROUTE condition was assigned using a Latin square randomization (Table 4). Sessions were separated by at least 6 days. During each session, CSF (750 µl) and blood (5 ml) samples were drawn immediately prior to (T = 0) and following (T = 60 and 120 min) each administration of d5OT.
Monkeys were divided into three groups, each with two monkeys; each group received the following in a terminal study at the 5th week: Group 1 (Monkeys ID# 1 and ID# 5) received 40 IU of d5OT IN, Group 2 received 80 IU of d5OT IN (Monkeys ID# 2 and ID# 4) and Group 3 received 80 IU of d5OT IV (Monkeys ID# 3 and ID# 6). Animals were perfused on average, 140 ± 7 (mean ± SD) min after d5OT administration (range = 135–149 min) (Table 4). Plasma and CSF were drawn just before administration of d5OT, at the midpoint between d5OT administration and perfusion (~60 min post-d5OT administration), and just before perfusion.
Chemicals: An unlabeled standard for d0OT and deuterated standard for d5OT were purchased from Sigma-Aldrich (St. Louis, MO); d10OT was purchased for use as an internal standard through a custom order from Cayman Chemical (Ann Arbor, MI). All other reagents were commercially available, and we purchased LC or MS grade chemicals when available. Plasma and CSF sample preparation for LC–MS/MS analysis. CSF and plasma samples were collected as described above. Using 15 ml polystyrene tubes, 1.0 ml of each standard, quality control (QC), or plasma sample was combined with 30 µl of internal standard mixture (34 ng/ml d10OT in 50:50 acetonitrile (ACN):water, v–v) and incubated for 20 min on ice. Volumes used for CSF samples ranged from 0.4 to 1.0 ml, depending on sample availability. CSF samples <1.0 ml were brought to a final volume of 1.0 ml using charcoal-stripped serum, prior to addition of internal standard. To each tube, 2 ml of ice-cold ACN was added, vortexed thoroughly, and centrifuged at 2500 × g for 10 min at 4 °C. The supernatants were transferred to new 13 mm × 100 mm polypropylene tubes and evaporated in a 37 °C water bath, under forced air, to a volume of <1 ml. […]
(§2) Solid-phase extraction (SPE) columns (Strata-X-Drug B, 60 mg/6 ml, Phenomenex, Torrance, CA) were conditioned prior to use by adding 2 ml of methanol, followed by 2 ml of water, and 2 ml of 0.2 M ammonium acetate (pH 3.0) in water; each was allowed to flow through by gravity before the next was added. […] After a 15 min incubation at 4 °C, plates were filtered into microtiter plates (Shimadzu, Kyoto, Japan) using a positive pressure manifold (8 min at 5 psi, followed by 15 s at 15 psi; Biotage, Uppsala, Sweden), and analyzed. […]

[2] = Plasma concentration of endogenous d0OT by LC-MS/MS; type: in vivo, rhesus macaques (Macaca mulatta); conditions: LLOQ 10 pg/ml, MDL 4 pg/ml
Experimental: as §1
Chemicals: An unlabeled standard for d0OT and deuterated standard for d5OT were purchased from Sigma-Aldrich (St. Louis, MO); d10OT was purchased for use as an internal standard through a custom order from Cayman Chemical (Ann Arbor, MI). All other reagents were commercially available, and we purchased LC or MS grade chemicals when available. Plasma and CSF sample preparation for LC–MS/MS analysis. […]
as §2

[3] = 60 min, previous study, cited from earlier work
Experimental: This study has several limitations. The limit of quantification (100 pg/ml) and between subject variability for d5OT precluded comparisons of CSF concentrations of d5OT across routes of administration (IN vs. IV), or across time (60 vs. 120 min), for a given route. […] For example, mean plasma concentration of d5OT at 60 min in the IV condition was 1992 ± 476 pg/ml in the present study and 3306 ± 1162 pg/ml in the previous st ...

CC[C@H](C)[C@@H]1NC(=O)[C@H](Cc2ccc(O)cc2)NC(=O)[C@@H](N)CSSC[C@@H](C(=O)N2CCC[C@H]2C(=O)N[C@@H](CC(C)C)C(=O)NCC(N)=O)NC(=O)[C@H](CC(N)=O)NC(=O)[C@H](CCC(N)=O)NC1=O [OT, oxytocin]
CSF concentrations of d0OT at necropsy ([1]; 40 IU IN condition, monkey #1): not quantified
CSF concentrations of d0OT at necropsy ([1]; 40 IU IN condition, one monkey): 12 pg/mL
CSF concentrations of d0OT at necropsy ([1]; 80 IU IN condition, two monkeys, listed as d0OT): 16 pg/mL and 10 pg/mL
CSF concentrations of d0OT at necropsy ([1]; 80 IU IV condition, two monkeys, listed as d0OT): 16 pg/mL and 14 pg/mL
d0OT in plasma [2]: not detected

CC[C@H](C)[C@@H]1NC(=O)[C@H](Cc2ccc(O)cc2)NC(=O)[C@@H](N)CSSC[C@@H](C(=O)N2CCC[C@H]2C(=O)N[C@@H](CC(C)C)C(=O)NCC(N)=O)NC(=O)[C@H](CC(N)=O)NC(=O)[C@H](CCC(N)=O)NC1=O [d5OT]
Plasma d5OT ([3]; 80 IU IN condition): 615 ± 474 pg/mL
Mean plasma concentration of d5OT ([3]; IV condition): 3.306 ± 1.162 ng/mL

Reference: paper PMC7270110, “Labeled oxytocin administered via the intranasal route reaches the brain in rhesus macaques” (Nature Communications, 2020)
